Results: patent publication US20240190860A1, “8-CYCLO-SUBSTITUTED QUINAZOLINE DERIVATIVES AS LPA RECEPTOR 2 INHIBITORS” (CHIESI FARMACEUTICI S.p.A., priority 2021, published 2024)

Molecular target: T1, human recombinant LPA2 expressed in CHO cells (Homo sapiens, UniProt Q9HBW0)
T1 construct: expressed in transfected cells; host or cells: CHO cells (CHO-hLPA2 cell line)
Assay: FLIPR calcium mobilization assay, LPA2 antagonism in CHO-hLPA2 cells
Assay type: cell-based
Details: CHO-hLPA2 cells, inhibition of LPA EC80 Ca2+ response, 30 min pre-incubation; read-out: LPA2 IC50
Protocol: The effectiveness of compounds of the present invention as LPA2 antagonist can be determined at the human recombinant LPA2 expressed in CHO cells, using a FLIPR assay in 384 well format.
CHO-hLPA2 cell lines are cultured in a humidified incubator at 5% C02 in DMEM/F-12 (1:1) MIXTURE with 2 mM Glutamax, supplemented with 10% of Foetal Bovine Serum, 1 mM Sodium Pyruvate, 11 mM Hepes and 1× Penicillin/Streptomycin. CHO hLPA2 cells are seeded into black walled clear-bottom 384-well plates (#781091, Greiner Bio-One GmbH) at a density of 7,500 cells per well in 50 μl culture media and grown overnight in a 37° C. humidified CO2-incubator. Serial dilutions (1:3 or 1:4, 11 points CRC) of compounds are performed in 100% DMSO at 200× the final concentration. The compounds are diluted 1:50 prior to the experiment with Assay Buffer (20 mM HEPES, 145 mM NaCl, 5 mM KCl, 5.5 mM glucose, 1 mM MgCl2 and 2 mM CaCl2, pH 7.4 containing 0.01% Pluronic F-127) to obtain a solution corresponding to […] the final concentration in the assay (4×, 2% DMSO). The final concentration of DMSO in the assay will be 0.5% in each well. Medium is removed by aspiration and cells are then incubated with 30 μl of a loading solution containing 5 μM of the cytoplasmic Ca2+ indicator Cal-520 AM in Assay Buffer containing 2.5 mM probenecid for 30 min at 37° C. incubator (cell loading). The loaded cell plates are transferred into the FLIPR instrument and calcium responses are monitored during the on-line addition protocols. For testing of compounds, after the cell loading, 10 μl/well of 4× antagonists' solution was added onto the cells. After 30 min pre-incubation (at 37° C.), 10 μl/well of 5× concentrated LPA EC80 was added and Ca2+ mobilization responses was followed during the on-line addition protocol. Intracellular peak fluorescence values subtracted by baseline fluorescence are exported and analysed to determine IC50 values, respectively. The calcium response is expressed as percentage of the maximal inhibition of the EC80 agonist response.
The raw data (peak height expressed as relative fluorescence units) are normalized and transformed into “percent of inhibition”. Curve fitting and pIC50 (−LogIC50) estimations are carried out using a four-parameter logistic model using XLfit Software.

T1 sequence (Q9HBW0 whole entry): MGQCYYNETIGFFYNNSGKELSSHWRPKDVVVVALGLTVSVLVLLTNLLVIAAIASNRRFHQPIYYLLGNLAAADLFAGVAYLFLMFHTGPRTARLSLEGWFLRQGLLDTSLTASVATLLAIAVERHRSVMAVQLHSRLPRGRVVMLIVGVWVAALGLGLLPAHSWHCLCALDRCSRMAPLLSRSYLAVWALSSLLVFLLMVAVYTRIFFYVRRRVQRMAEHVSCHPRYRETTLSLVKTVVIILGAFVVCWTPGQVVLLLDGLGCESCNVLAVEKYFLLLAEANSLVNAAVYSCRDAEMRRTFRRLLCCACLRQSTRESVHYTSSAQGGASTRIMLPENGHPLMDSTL

SMILES	IC50
COC(=O)Nc1nc(C)c(S(=O)(=O)N2CCN(C[C@H](C)Nc3ncnc4c(-c5sc(C)nc5C)cccc34)CC2)s1 [Example 1, methyl N-[5-({4-[(2S)-2-{[8-(2,4-dimethyl-1,3-thiazol-5-yl)quinazolin-4-yl]amino}propyl]piperazin-1-yl}sulfonyl)-4-methyl-1,3-thiazol-2-yl]carbamate]	< 10 nM
COC(=O)Nc1nc(C)c(S(=O)(=O)N2CCN(C[C@H](C)Nc3ncnc4c(-c5cnc(C)cn5)cccc34)CC2)s1 [Example 2, methyl N-[4-methyl-5-({4-[(2S)-2-{[8-(5-methylpyrazin-2-yl)quinazolin-4-yl]amino}propyl]piperazin-1-yl}sulfonyl)-1,3-thiazol-2-yl]carbamate]	10 to 100 nM
Cc1cc(-c2ccc(S(=O)(=O)N3CCN(C[C@H](C)Nc4ncnc5c(-c6c(C)noc6C)cccc45)CC3)s2)on1 [Example 3, 8-(3,5-dimethyl-1,2-oxazol-4-yl)-N-[(2S)-1-(4-{[5-(3-methyl-1,2-oxazol-5-yl)thiophen-2-yl]sulfonyl}piperazin-1-yl)propan-2-yl]quinazolin-4-amine]	< 10 nM
Cc1cc(-c2ccc(S(=O)(=O)N3CCN(C[C@H](C)Nc4ncnc5c(-c6ccccc6)cccc45)CC3)s2)on1 [Example 4, N-[(2S)-1-(4-{[5-(3-methyl-1,2-oxazol-5-yl)thiophen-2-yl]sulfonyl}piperazin-1-yl)propan-2-yl]-8-phenylquinazolin-4-amine]	< 10 nM
Cc1cc(-c2ccc(S(=O)(=O)N3CCN(C[C@H](C)Nc4ncnc5c(-c6c(C)nn(C)c6C)cccc45)CC3)s2)on1 [Example 5, N-[(2S)-1-(4-{[5-(3-methyl-1,2-oxazol-5-yl)thiophen-2-yl]sulfonyl}piperazin-1-yl)propan-2-yl]-8-(1,3,5-trimethyl-1H-pyrazol-4-yl)quinazolin-4-amine]	< 10 nM
Cc1cc(-c2ccc(S(=O)(=O)N3CCN(C[C@H](C)Nc4ncnc5c(-c6cccnc6)cccc45)CC3)s2)on1 [Example 6, N-[(2S)-1-(4-{[5-(3-methyl-1,2-oxazol-5-yl)thiophen-2-yl]sulfonyl}piperazin-1-yl)propan-2-yl]-8-(pyridin-3-yl)quinazolin-4-amine]	< 10 nM
Cc1cc(-c2ccc(S(=O)(=O)N3CCN(C[C@H](C)Nc4ncnc5c(-c6sc(C)nc6C)cccc45)CC3)s2)on1 [Example 7, 8-(2,4-dimethyl-1,3-thiazol-5-yl)-N-[(2S)-1-(4-{[5-(3-methyl-1,2-oxazol-5-yl)thiophen-2-yl]sulfonyl}piperazin-1-yl)propan-2-yl]quinazolin-4-amine]	< 10 nM
Cc1cc(-c2ccc(S(=O)(=O)N3CCN(C[C@H](C)Nc4ncnc5c(-c6ccncc6)cccc45)CC3)s2)on1 [Example 8, N-[(2S)-1-(4-{[5-(3-methyl-1,2-oxazol-5-yl)thiophen-2-yl]sulfonyl}piperazin-1-yl)propan-2-yl]-8-(pyridin-4-yl)quinazolin-4-amine]	< 10 nM
Cc1noc(-c2ccc(S(=O)(=O)N3CCN(C[C@H](C)Nc4ncnc5c(-c6c(C)noc6C)cccc45)CC3)s2)c1C [Example 9, 8-(3,5-dimethyl-1,2-oxazol-4-yl)-N-[(2S)-1-(4-{[5-(3,4-dimethyl-1,2-oxazol-5-yl)thiophen-2-yl]sulfonyl}piperazin-1-yl)propan-2-yl]quinazolin-4-amine]	< 10 nM
COC(=O)Nc1nc(C)c(S(=O)(=O)N2CCN(C[C@H](C)Nc3ncnc4c(-c5c(C)noc5C)cccc34)CC2)s1 [Example 10, methyl N-[5-({4-[(2S)-2-{[8-(3,5-dimethyl-1,2-oxazol-4-yl)quinazolin-4-yl]amino}propyl]piperazin-1-yl}sulfonyl)-4-methyl-1,3-thiazol-2-yl]carbamate]	< 10 nM
Cc1cc(-c2ccc(S(=O)(=O)N3CCN(C[C@H](C)Nc4ncnc5c(-c6cncnc6)cccc45)CC3)s2)on1 [Example 11, N-[(2S)-1-(4-{[5-(3-methyl-1,2-oxazol-5-yl)thiophen-2-yl]sulfonyl}piperazin-1-yl)propan-2-yl]-8-(pyrimidin-5-yl)quinazolin-4-amine]	< 10 nM
Cc1cc(-c2ccc(S(=O)(=O)N3CCN(C[C@H](C)Nc4ncnc5c(-c6ccccn6)cccc45)CC3)s2)on1 [Example 12, N-[(2S)-1-(4-{[5-(3-methyl-1,2-oxazol-5-yl)thiophen-2-yl]sulfonyl}piperazin-1-yl)propan-2-yl]-8-(pyridin-2-yl)quinazolin-4-amine]	< 10 nM
Cc1cc(-c2ccc(S(=O)(=O)N3CCN(C[C@H](C)Nc4ncnc5c(-c6cn(C)nc6C(F)(F)F)cccc45)CC3)s2)on1 [Example 14, N-[(2S)-1-(4-{[5-(3-methyl-1,2-oxazol-5-yl)thiophen-2-yl]sulfonyl}piperazin-1-yl)propan-2-yl]-8-[1-methyl-3-(trifluoromethyl)-1H-pyrazol-4-yl]quinazolin-4-amine]	< 10 nM
Cc1cc(-c2ccc(S(=O)(=O)N3CCN(C[C@H](C)Nc4ncnc5c(-c6cnc(C(F)(F)F)s6)cccc45)CC3)s2)on1 [Example 15, N-[(2S)-1-(4-{[5-(3-methyl-1,2-oxazol-5-yl)thiophen-2-yl]sulfonyl}piperazin-1-yl)propan-2-yl]-8-[2-(trifluoromethyl)-1,3-thiazol-5-yl]quinazolin-4-amine]	< 1000 nM
Cc1cc(-c2ccc(S(=O)(=O)N3CCN(C[C@H](C)Nc4ncnc5c(-c6cccc(CN7CCCC7)c6)cccc45)CC3)s2)on1 [Example 16, N-[(2S)-1-(4-{[5-(3-methyl-1,2-oxazol-5-yl)thiophen-2-yl]sulfonyl}piperazin-1-yl)propan-2-yl]-8-{3-[(pyrrolidin-1-yl)methyl]phenyl}quinazolin-4-amine]	< 10 nM
Cc1cc(-c2ccc(S(=O)(=O)N3CCN(C[C@H](C)Nc4ncnc5c(-c6cccc(CN(C)C)c6)cccc45)CC3)s2)on1 [Example 17, 8-{3-[(dimethylamino)methyl]phenyl}-N-[(2S)-1-(4-{[5-(3-methyl-1,2-oxazol-5-yl)thiophen-2-yl]sulfonyl}piperazin-1-yl)propan-2-yl]quinazolin-4-amine]	< 10 nM
Cc1cc(-c2ccc(S(=O)(=O)N3CCN(C[C@H](C)Nc4ncnc5c(-c6cn(C)nc6C6CC6)cccc45)CC3)s2)on1 [Example 18, 8-(3-cyclopropyl-1-methyl-1H-pyrazol-4-yl)-N-[(2S)-1-(4-{[5-(3-methyl-1,2-oxazol-5-yl)thiophen-2-yl]sulfonyl}piperazin-1-yl)propan-2-yl]quinazolin-4-amine]	< 10 nM
Cc1cc(-c2ccc(S(=O)(=O)N3CCN(CCNc4ncnc5c(-c6cccnc6)cccc45)CC3)s2)on1 [Example 19, N-[2-(4-{[5-(3-methyl-1,2-oxazol-5-yl)thiophen-2-yl]sulfonyl}piperazin-1-yl)ethyl]-8-(pyridin-3-yl)quinazolin-4-amine]	< 1000 nM
Cc1cc(-c2ccc(S(=O)(=O)N3CCN(C[C@H](C)Nc4ncnc5c(N6CCCC6)cccc45)CC3)s2)on1 [Example 20, N-[(2S)-1-(4-{[5-(3-methyl-1,2-oxazol-5-yl)thiophen-2-yl]sulfonyl}piperazin-1-yl)propan-2-yl]-8-(pyrrolidin-1-yl)quinazolin-4-amine]	< 10 nM
COC(=O)Nc1nc(C)c(S(=O)(=O)N2CCN(C[C@H](C)Nc3ncnc4c(-c5cccc(CN(C)C)c5)cccc34)CC2)s1 [Example 21, methyl N-[5-({4-[(2S)-2-[(8-{3-[(dimethylamino)methyl]phenyl}quinazolin-4-yl)amino]propyl]piperazin-1-yl}sulfonyl)-4-methyl-1,3-thiazol-2-yl]carbamate]	< 10 nM
COC(=O)Nc1nc(C)c(S(=O)(=O)N2CCN(C[C@H](C)Nc3ncnc4c(-c5cccc(CN6CCCC6)c5)cccc34)CC2)s1 [Example 22, methyl N-[4-methyl-5-({4-[(2S)-2-[(8-{3-[(pyrrolidin-1-yl)methyl]phenyl}quinazolin-4-yl)amino]propyl]piperazin-1-yl}sulfonyl)-1,3-thiazol-2-yl]carbamate]	< 10 nM
COC(=O)Nc1nc(C)c(S(=O)(=O)N2CCN(C[C@H](C)Nc3ncnc4c(-c5cccc(CN6CCN(C)CC6)c5)cccc34)CC2)s1 [Example 24, methyl N-[4-methyl-5-({4-[(2S)-2-[(8-{3-[(4-methylpiperazin-1-yl)methyl]phenyl}quinazolin-4-yl)amino]propyl]piperazin-1-yl}sulfonyl)-1,3-thiazol-2-yl]carbamate]	< 10 nM
